According to patent US20140243396A1, “METHOD OF TREATING MUCOEPIDERMOID CARCINOMA” (DANA-FARBER CANCER INSTITUTE, INC., priority 2011, published 2014):

What was measured:
Assay type in all cases: cell-based
H292 and H3118 cells [1] = assay: MTS proliferation assay; details: Homo sapiens, NCI-H292, 120 h, MTS assay on day 5 of treatment, read-out: IC50, cell growth
Procedure: FIG. 6 illustrates PI3-kinase signaling contributes to MEC cell growth. A. Effects of PI3-kinase inhibitor LY-294002 or Compound A on MEC cell growth. […] The same blot was stripped and probed with anti-AKT or anti-V.-actin antibody. Image was cropped and auto-leveled by Photoshop. A representative of three independent experiments. (Right) MEC cell growth was measured by MTS assay on day 5 of LY-294002 or Compound A treatment. Points: mean, bars: SD (n=3). B. Effects of knock-down of PI3-kinase α or β on MEC cell growth. […] cell lysates were prepared on day 5 post-transduction. Image was cropped and auto-leveled by Photoshop. […] Cell numbers were counted by trypan blue exclusion on day 5 posttransduction. […] SD (n=3). **p<0.01, ***p<0.001 compared to control cells. C. […] Cell numbers were counted by trypan blue exclusion on day 5, Columns: mean, bars: SD (n=3). The Methods were described previously (Chen et al. […] On day 5 post infection, cells were counted by trypan blue exclusion. MTS proliferation assay (Promega, Madison, Wis.): 1-2×10^3 cells were treated with LY-294002, Compound A or DMSO in the concentration as indicated in FIG. 6A. MTS activities were measured on day 5. […] DNA amount was measured by flow cytometry analysis (BD FACScans). […] Cell viability was measured using the Annexin-V-FLUOS Staining Kit (Roche Diagnostics, Indianapolis, Ind.) by flow cytometry analysis (BD FACScans).

H292 and H3118 cells [2] = assay: Cell growth, cell count by trypan blue exclusion
Procedure: (§1) FIG. 2 illustrates inhibition of PDE4B by pharmacological inhibitor rolipram plus forskolin prevents cell growth, causes cell cycle arrest and induces apoptosis in fusion positive MEC cells. Rolipram (R), forskolin (FK), Rolipram plus forskolin (R+FK) or DMSO. Columns: mean, bars: SD (n>3), *p<0.05, **p<0.01, ***p<0.001, compared to HSY cell growth. B. 1×10^5 cells were treated with 50 μM R plus 20 μM FK or DMSO for 24 hours. C. 1×10^5 cells were treated with 50 μM rolipram plus 20 μM forskolin with or DMSO for 48 hours. Apoptosis assay was performed by PI and Annexin-V staining and analyzed by flow cytometry. Columns: mean, bars: SD (n=3). *p<0.05, compared with DMSO treated cells.
FIG. 6 illustrates PI3-kinase signaling contributes to MEC cell growth. A. Effects of PI3-kinase inhibitor LY-294002 or Compound A on MEC cell growth. […] The same blot was stripped and probed with anti-AKT or anti-V.-actin antibody. Image was cropped and auto-leveled by Photoshop. A representative of three independent experiments. (Right) MEC cell growth was measured by MTS assay on day 5 of LY-294002 or Compound A treatment. Points: mean, bars: SD (n=3). B. Effects of knock-down of PI3-kinase α or β on MEC cell growth. […] H3118 cell lysates were prepared on day 5 post-transduction. Image was cropped and auto-leveled by Photoshop. (Lower) Effects of knock-down of PI3-kinase α or β on MEC cell growth. 1×10^5 cells were transduced twice with lenti-viruses harboring shRNAs targeting PI3-K α, β or scramble control. Cell numbers were counted by trypan blue exclusion on day 5 posttransduction. Cell growth of scramble control virus infected cells was set to 100%, Columns: mean, bars: SD (n=3). **p<0.01, ***p<0.001 compared to control cells. C. Effects of Compound A in combination of rolipram plus forskolin on of MEC cell growth. 1×10^5 cells were treated with the combination of inhibitors listed. Cell numbers were counted by trypan blue exclusion on day 5, Columns: mean, bars: SD (n=3).
(§2) The Methods were described previously (Chen et al. Genes Cancer, 1:822-835 (2010)). Cell growth: 1-2×10^5 cells were infected with lenti-virus harboring specific shRNAs. On day 5 post infection, cells were counted by trypan blue exclusion. MTS proliferation assay (Promega, Madison, Wis.): 1-2×10^3 cells were treated with LY-294002, Compound A or DMSO in the concentration as indicated in FIG. 6A. MTS activities were measured on day 5. Cell cycle analysis: 1×10^5 cells were treated with inhibitors or infected with viruses. DNA amount was measured by flow cytometry analysis (BD FACScans). Apoptosis assay: 1×10^5 cells were treated with inhibitors or infected with virus. Cell viability was measured using the Annexin-V-FLUOS Staining Kit (Roche Diagnostics, Indianapolis, Ind.) by flow cytometry analysis (BD FACScans).

H292 cells = assay: Cell growth, cell count by trypan blue exclusion; details: PDE4B knock-down, day 5 post-transduction, compared to scramble control
Procedure: (§3) FIG. 3 illustrates knock-down of PDE4B inhibits fusion positive MEC cell growth, causes cell cycle arrest and induces apoptosis. A. H3118 cell lysate was prepared on day 5 post-transduction and subjected to western blot analysis. Image was cropped and auto-leveled by Photoshop. A representative of three independent experiments. B. 1×10^5 MEC cells were infected twice by shRNA No. 1 and No. 2 and cell number was count on day 5 post-transduction by trypan blue exclusion. Columns: mean, bars: SD (n>3). *p<0.05, **p<0.01, compared with scramble control virus infected cell growth. C. 1×10^5 cells were infected twice by shRNA No. 2. Cell cycle was determined by PI staining followed by FACS analysis on day 5 post-transduction, n=3. D. 1×10^5 cells were infected twice by shRNA No. 2. Apoptosis assay was performed by PI and Annexin-V staining and analyzed by flow cytometry on day 5 post-transduction, Columns: mean, bars: SD (n=3). *p<0.05, compared with control cells.
as §2

H3118 cells [3] = assay: Cell growth, cell count by trypan blue exclusion; details: PDE4B knock-down, day 5 post-transduction, compared to scramble control
Procedure: as §3, §2

HSY cells = assay: Cell growth, cell count by trypan blue exclusion
Procedure: as §1, §3, §2

PDE4B = PDE4B expression in cells (qPCR); details: vs shLUC
Procedure: FIG. 1 illustrates identification of CRTC1-MAML2 Target genes. […] RT-qPCR experiments were performed in triplicates. Columns: mean, bars: SD (n=3). *p<0.05, compared with expression from shLUC infected cells (Student t test). B Inhibition of CRTC1-MAML2 inhibited H3118 and H292 cell growth. Columns: mean, bars: SD (n=3). *p<0.05, **p<0.01, ***p<0.001, compared with shLUC. […] Columns: mean, bars: SD (n=3). […] Image was cropped and auto-leveled by Photoshop. A representative of three independent experiments.
Total RNA was isolated by the Trizol method (Invitrogen). qPCR was performed using ABI PRISM 7500 sequence detector (Applied Biosystems, Foster City, Calif.) by SYBR method (Applied Biosystems). The SYBR method uses SYBR Green I dye, which is a highly specific, double-stranded DNA binding dye, to detect PCR product as it accumulates during PCR cycles. All samples were amplified in triplicates. The relative change of transcript amount was normalized with the GAPDH mRNA expression levels (20).

H3118 cells [4] = assay: Microarray gene expression after CRTC1-MAML2 knock-down
Procedure: H3118 or HSY cells were transduced twice with retro-virus harboring shLUC or sh#D. GFP-positive cells were sorted 48 hours post-transduction. Total RNA was extracted using Trizol reagents (Invitrogen) and purified by RNAeasy Mini Column (QIAGEN). Hybridization with Affymetrix U133A plus—2 microarray chips was performed and analyzed at Dana-Farber Cancer Institute Microarray Core. The d-Chip analysis software was used for the analysis; Li, C. and Wong, W. H. Proc. Natl. Acad. Sci. USA […]. Genes with three fold expression changes in H3118 cells were considered significant (n=3, p<=0.05).

[5] = retroviral shRNA, fusion-positive H292 and H3118 cells, compared to shLUC
[6] = retroviral shRNA, fusion-negative HSY cells, compared to shLUC

Compound	IC50 (H292 and H3118 cells [1])	cell growth (in words) (H292 and H3118 cells [2]; [5])	cell growth (in words) (HSY cells; [6])	PDE4B expression (in words) (PDE4B; H3118 and H292 cells)	PDE4B expression (in words) (PDE4B; fusion negative HSY cells)	also measured
Cn1c(=O)n(-c2ccc(C(C)(C)C#N)cc2)c2c3cc(-c4cnc5ccccc5c4)ccc3ncc21 [Compound A, 2-methyl-2-[4-(3-methyl-2-oxo-8-quinolin-3-yl-2,3-dihydroimidazo[4,5-c]quinolin-1-yl)-phenyl]propionitrile]	6 to 20 nM					effect on MEC cell growth when combined with rolipram and forskolin (H292 and H3118 cells [2]; MEC cells, cell count by trypan blue exclusion on day 5): additive effect
O=c1cc(N2CCOCC2)oc2c(-c3ccccc3)cccc12 [LY-294002]	4000 to 10000 nM					
COc1ccc(C2CNC(=O)C2)cc1OC1CCCC1 (centres unmarked) [rolipram, 4-(3-cyclopentyloxy-4-methoxyphenyl)pyrrolidin-2-one]						cell growth (in words) (H292 and H3118 cells [2]; inhibitor treatment, MEC cells): not changed
shRNA #1: shRNA lenti-viral construct targeting PDE4B, SEQ ID NO 1 (CCGGGCTTGAGTAAATCCTACAGTTCTCGAGAACTGTAGGATTTACTCAAGCTTTTTG)						growth inhibition (H292 cells): 74%; growth inhibition (H3118 cells [3]): 83%; cell growth (in words) (HSY cells; HSY cells, PDE4B knock-down): slight growth reduction
shRNA #A: small hairpin RNA targeting the MAML2 moiety of CRTC1-MAML2, GTAATCAACCTAACACATA, SEQ ID NO 3		significantly inhibited cell growth	no significant effect	significantly inhibited PDE4B expression	not	
shRNA #D: small hairpin RNA targeting the MAML2 moiety of CRTC1-MAML2, GACAGAGCCTGGTAATGAT, SEQ ID NO 4		significantly inhibited cell growth	no significant effect	significantly inhibited PDE4B expression	not	PDE4B expression, down-regulation (H3118 cells [4]; CRTC1-MAML2 depletion): 17 fold; HES2 expression, up-regulation (H3118 cells [4]; CRTC1-MAML2 knock-down vs luciferase knock-down): 7 fold
